The assay addresses T1, F508delCFTR (Homo sapiens, UniProt P13569, DEL508-508).
T1 construct: expressed in transfected cells; host or cells: CFBE41o- human lung-derived epithelial cells (CFBE4lo-F508delCFTR-HRP), doxycycline-inducible
The assay can be described thus: Cell Surface Expression-Horse Radish Peroxidase (CSE-HRP) Assay.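 For Maximum % activity (with co-corrector): co-corrector and positive control are both the same reference corrector at 2 µM.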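 For Maximum % activity (without co-corrector): percent of the 2 µM on-plate positive control corrector response above DMSO.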 It counts as cell-based. The note with it: for Maximum % activity (with co-corrector): with co-corrector (2 μM); for Maximum % activity (with co-corrector) / Emax: maximum at any tested concentration, normalized to on-plate positive control; for Emax: without co-corrector, read-out: Maximum % activity (without co-corrector).

Setting [1] is: test compound without co-corrector, read-out: EC50 (without co-corrector).
[2] abbreviates: with co-corrector (2 μM of 3-[(2R,4R)-4-({[1-(2,2-difluoro-1,3-benzodioxol-5-yl)cyclopropyl]carbonyl}amino)-7-methoxy-3,4-dihydro-2H-chromen-2-yl]benzoic acid), read-out: EC50 (with co-corrector).

Read-outs that look alike come from different tables or passages of the source. A value given as a limit tells only on which side of the number the result lay.

T1 sequence (P13569 with tags, fused parts or gaps DEL508-508): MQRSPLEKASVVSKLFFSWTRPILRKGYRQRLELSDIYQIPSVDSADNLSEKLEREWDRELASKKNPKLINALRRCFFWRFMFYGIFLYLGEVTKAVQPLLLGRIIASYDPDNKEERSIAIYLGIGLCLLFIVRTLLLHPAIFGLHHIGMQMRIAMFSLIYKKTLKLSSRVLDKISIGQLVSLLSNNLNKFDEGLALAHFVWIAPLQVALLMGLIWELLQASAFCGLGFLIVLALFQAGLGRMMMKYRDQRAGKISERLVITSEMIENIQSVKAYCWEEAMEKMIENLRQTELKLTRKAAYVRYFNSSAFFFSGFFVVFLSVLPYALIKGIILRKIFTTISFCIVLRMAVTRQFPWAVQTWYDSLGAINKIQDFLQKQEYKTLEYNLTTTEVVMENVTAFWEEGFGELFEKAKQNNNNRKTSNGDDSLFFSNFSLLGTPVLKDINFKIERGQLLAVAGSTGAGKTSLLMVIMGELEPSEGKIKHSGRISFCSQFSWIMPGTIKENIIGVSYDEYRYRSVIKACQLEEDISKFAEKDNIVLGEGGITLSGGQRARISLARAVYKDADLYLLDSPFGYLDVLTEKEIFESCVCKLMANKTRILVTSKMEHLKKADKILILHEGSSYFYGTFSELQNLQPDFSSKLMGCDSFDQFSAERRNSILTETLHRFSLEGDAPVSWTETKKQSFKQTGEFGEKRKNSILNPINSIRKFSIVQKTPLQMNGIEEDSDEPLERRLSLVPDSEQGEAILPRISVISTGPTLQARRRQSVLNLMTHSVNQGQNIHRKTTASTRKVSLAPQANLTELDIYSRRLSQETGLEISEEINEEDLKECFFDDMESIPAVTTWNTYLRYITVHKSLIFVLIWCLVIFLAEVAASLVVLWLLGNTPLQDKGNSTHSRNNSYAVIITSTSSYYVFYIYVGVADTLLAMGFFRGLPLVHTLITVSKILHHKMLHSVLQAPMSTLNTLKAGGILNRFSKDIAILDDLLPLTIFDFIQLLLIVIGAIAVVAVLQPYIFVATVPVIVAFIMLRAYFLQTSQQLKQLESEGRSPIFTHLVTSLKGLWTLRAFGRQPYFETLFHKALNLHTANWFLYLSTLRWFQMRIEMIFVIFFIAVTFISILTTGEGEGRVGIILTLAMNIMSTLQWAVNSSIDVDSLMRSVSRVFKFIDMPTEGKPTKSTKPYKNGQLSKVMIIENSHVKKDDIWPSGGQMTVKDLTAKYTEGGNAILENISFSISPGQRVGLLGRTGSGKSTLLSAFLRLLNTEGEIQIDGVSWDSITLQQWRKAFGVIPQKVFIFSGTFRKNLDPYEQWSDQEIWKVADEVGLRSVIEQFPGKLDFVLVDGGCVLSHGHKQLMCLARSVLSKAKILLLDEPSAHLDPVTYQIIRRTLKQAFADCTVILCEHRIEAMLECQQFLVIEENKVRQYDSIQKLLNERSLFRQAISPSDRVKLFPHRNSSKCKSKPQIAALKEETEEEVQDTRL

Regarding `COc1ccc(SC(F)(F)F)cc1CN[C@H]1[C@H](C(C)(C)C)[C@@H](C(=O)O)N(C(=O)C2CCCCC2)[C@H]1c1ccccc1` [Example I-184], the “Maximum % activity (with co-corrector)” value is listed as “+++ (≥350)” and the Emax lay within 100 to 200%. Also, under setting [1], the EC50 (in general, the concentration that produces a half-maximal response) lay within 1000 to 10000 nM. Also, under setting [2], the EC50 was below 1000 nM.
Turning to `COc1ccc(C(C)(C)C)cc1CN[C@H]1[C@H](C(C)(C)C)[C@@H](C(=O)O)N(C(=O)C2CCCCC2)[C@H]1c1ccccc1C(C)C` [Example I-185], the “Maximum % activity (with co-corrector)” value is on record as “+++ (≥350)” and the Emax was above 200%. The EC50 under setting [1] is below 1000 nM. In addition, the EC50 under setting [2] was below 1000 nM.
Consider `COc1ccc(C(C)(C)C)cc1CN[C@H]1[C@H](C(C)(C)C)[C@@H](C(=O)O)N(C(=O)C2CC3CC3C2)[C@H]1c1ccccc1` (stereo partly drawn) [Example I-186], for which the “Maximum % activity (with co-corrector)” value is recorded as “+++ (≥350)” and the Emax was in the range of 100 to 200%. Besides, the EC50 under setting [1] was in the range of 1000 to 10000 nM. The EC50 under setting [2] lay in the range of 1000 to 10000 nM.
Turning to `COc1nc(C(C)(C)C)ccc1CN[C@H]1[C@H](C(C)(C)C)[C@@H](C(=O)O)N(C(=O)C2CCCCC2)[C@H]1c1ccccc1C(C)C` [Example I-187], the “Maximum % activity (with co-corrector)” value was “+++ (≥350)” and the Emax is above 200%. In addition, under setting [1], the EC50 is below 1000 nM. Also, under setting [2], the EC50 was below 1000 nM.
For the compound `COc1ccc2ccccc2c1CN[C@H]1[C@H](C(C)(C)C)[C@@H](C(=O)O)N(C(=O)C2CCCCC2)[C@H]1c1ccccc1` [Example I-188], the “Maximum % activity (with co-corrector)” value was “++ (≥150 and <350)”; the Emax was below 100%. Besides, the EC50 under setting [1] was 1000 to 10000 nM. Besides, the EC50 under setting [2] lay in the range of 1000 to 10000 nM.
Take `COc1ncc([Si](C)(C)C)cc1CN[C@H]1[C@H](C(C)(C)C)[C@@H](C(=O)O)N(C(=O)[C@@H]2CCCC(F)(F)C2)[C@H]1c1ccccc1` [Example I-189]: the 50% effective concentration (EC50) by setting is: under setting [1], below 1000 nM; under setting [2], below 1000 nM.
Regarding `COc1cc2c(cc1CN[C@H]1[C@H](C(C)(C)C)[C@@H](C(=O)O)N(C(=O)[C@@H]3CCCC(F)(F)C3)[C@H]1c1ccccc1)CCC2` [Example I-190], the “Maximum % activity (with co-corrector)” value was “+++ (≥350)” and the Emax is above 200%. Moreover, the EC50 under setting [1] is 1000 to 10000 nM. Further, the EC50 under setting [2] is below 1000 nM.
The corresponding values for `COc1ccc(C(C)(C)C)cc1CN[C@H]1[C@H](C(C)(C)C)[C@@H](C(=O)O)N(C(=O)C2CCCS2(=O)=O)[C@H]1c1ccccc1` (stereo partly drawn) [Example I-192] are “+++ (≥350)”, 100 to 200%, 1000 to 10000 nM and 1000 to 10000 nM.
The matching figures for `COc1nc(C(C)(C)C)ccc1CN[C@H]1[C@H](C(C)(C)C)[C@@H](C(=O)O)N(C(=O)OC(C)C)[C@H]1c1ccccc1` [Example I-194]: “+++ (≥350)”, above 200%, 1000 to 10000 nM and 1000 to 10000 nM.
The corresponding values for `COc1nc(C(C)(C)C)ccc1CN[C@H]1[C@H](C(C)(C)C)[C@@H](C(=O)O)N(C(=O)C2CCCC(OC)C2)[C@H]1c1ccccc1` (stereo partly drawn) [Example I-197] are “+++ (≥350)”, above 200%, 1000 to 10000 nM and 1000 to 10000 nM.
For the compound `COc1ccc(C(C)(C)C)cc1CN[C@H]1[C@H](C(C)(C)C)[C@@H](C(=O)O)N(C(=O)c2ccc3c(c2)OCCO3)[C@H]1c1cccnc1N(C)C` [Example I-199], the “Maximum % activity (with co-corrector)” value is “+++ (≥350)” and the Emax is 100 to 200%. In addition, the EC50 under setting [1] fell in the range of 1000 to 10000 nM. In addition, the EC50 under setting [2] was in the range of 1000 to 10000 nM.
Take `COc1ccc(C(C)(C)C)cc1CN[C@H]1[C@H](C(C)(C)C)[C@@H](C(=O)O)N(C(=O)c2ccc(OC3CCCCC3)cc2)[C@H]1c1cccnc1N(C)C` [Example I-200]: the “Maximum % activity (with co-corrector)” value was “+++ (≥350)” and the Emax lay within 100 to 200%. The EC50 under setting [1] was in the range of 1000 to 10000 nM. Further, the concentration giving a half-maximal response (EC50) under setting [2] was below 1000 nM.
The corresponding values for `COc1ccc(C(C)(C)C)cc1CN[C@H]1[C@H](C(C)(C)C)[C@@H](C(=O)O)N(C(=O)C2C3CCCC32)[C@H]1c1cccnc1N(C)C` (stereo partly drawn) [Example I-201] are “+++ (≥350)”, above 200%, 1000 to 10000 nM and below 1000 nM.
Turning to `COc1ccc(C(C)(C)C)cc1CN[C@H]1[C@H](C23CC(C2)C3)[C@@H](C(=O)O)N(C(=O)C2CCCCC2)[C@H]1c1ccccc1` [Example I-202], the “Maximum % activity (with co-corrector)” value was “+++ (≥350)” and the Emax was above 200%. Under setting [1], the EC50 lay within 1000 to 10000 nM. For the same compound, the EC50 under setting [2] was below 1000 nM.
For `COc1ccc(C(C)(C)C)cc1CN[C@@H]1[C@@H](C(C)(C)C)[C@H](C(=O)NS(C)(=O)=O)N(C(=O)C2CCCCC2)[C@@H]1c1ccccc1` [Example I-203], the “Maximum % activity (with co-corrector)” value is “++ (≥150 and <350)”; the Emax is below 100%. The EC50 under setting [1] lay within 1000 to 10000 nM. Also, the EC50 under setting [2] was 1000 to 10000 nM.
`COc1ncc(C2CCC2)cc1CN[C@H]1[C@H](C(C)(C)C)[C@@H](C(=O)O)N(C(=O)C2Cc3ccccc3CO2)[C@H]1c1ccccc1` (stereo partly drawn) [Example I-206]: the “Maximum % activity (with co-corrector)” value was “+++ (≥350)” and the Emax is 100 to 200%. The EC50 under setting [1] lay within 1000 to 10000 nM. Moreover, the EC50 under setting [2] lay within 1000 to 10000 nM.
In the case of `COc1nc(C(C)(C)C)ncc1CN[C@H]1[C@H](C(C)(C)C)[C@@H](C(=O)O)N(C(=O)C2CCCCC2)[C@H]1c1ccccc1` [Example I-207], the “Maximum % activity (with co-corrector)” value is recorded as “+++ (≥350)” and the Emax fell in the range of 100 to 200%. The concentration giving a half-maximal response (EC50) under setting [1] was in the range of 1000 to 10000 nM. Moreover, the EC50 under setting [2] is 1000 to 10000 nM.
In the case of `COc1ncc(C(F)(F)F)cc1CN[C@H]1[C@H](C(C)(C)C)[C@@H](C(=O)O)N(C(=O)[C@@H]2CCCCO2)[C@H]1c1cccnc1N(C)C` [Example I-208], the “Maximum % activity (with co-corrector)” value was “+++ (≥350)” and the Emax was in the range of 100 to 200%. Moreover, under setting [1], the EC50 was in the range of 1000 to 10000 nM. For the same compound, under setting [2], the EC50 fell in the range of 1000 to 10000 nM.
For `COc1ccc(C(C)(C)C)cc1CN[C@H]1[C@H](C(C)(C)C)[C@@H](C(=O)O)N(C(=O)[C@@H]2CCCCO2)[C@H]1c1cccnc1OC` [Example I-209], the “Maximum % activity (with co-corrector)” value is reported as “+++ (≥350)” and the Emax is above 200%. Moreover, under setting [1], the half-maximal effective concentration (EC50) was 1000 to 10000 nM. Besides, under setting [2], the concentration giving a half-maximal response (EC50) fell in the range of 1000 to 10000 nM.
`COc1ccc(C23CC(C2)C3)cc1CN[C@H]1[C@H](C(C)(C)C)[C@@H](C(=O)O)N(C(=O)OC(C)C)[C@H]1c1ccccc1` [Example I-210]: the “Maximum % activity (with co-corrector)” value was “+++ (≥350)” and the Emax was above 200%. In addition, the EC50 under setting [1] is 1000 to 10000 nM. Besides, under setting [2], the EC50 was below 1000 nM.
For the compound `COc1cnc(N2CCCC2)cc1CN[C@H]1[C@H](C(C)(C)C)[C@@H](C(=O)O)N(C(=O)C2CCCCC2)[C@H]1c1ccccc1` [Example I-212], the “Maximum % activity (with co-corrector)” value was “++ (≥150 and <350)”; the Emax is below 100%. Further, the half-maximal effective concentration (EC50) under setting [1] was in the range of 1000 to 10000 nM. Moreover, the EC50 under setting [2] fell in the range of 1000 to 10000 nM.
Consider `COc1ccc(C(C)(C)C(F)(F)F)cc1CN[C@H]1[C@H](C(C)(C)C)[C@@H](C(=O)O)N(C(=O)C2CCCCC2)[C@H]1c1ccccc1` [Example I-213], for which the “Maximum % activity (with co-corrector)” value is recorded as “+++ (≥350)” and the Emax was above 200%. For the same compound, the EC50 under setting [1] lay within 1000 to 10000 nM. In addition, under setting [2], the half-maximal effective concentration (EC50) lay in the range of 1000 to 10000 nM.
In the case of `COc1ncc(C2CCC2)cc1CN[C@H]1[C@H](C(C)(C)C)[C@@H](C(=O)O)N(C(=O)OC(C)C)[C@H]1c1ccccc1` [Example I-214], the “Maximum % activity (with co-corrector)” value is reported as “+++ (≥350)” and the Emax is above 200%. Moreover, the EC50 under setting [1] was 1000 to 10000 nM. Moreover, under setting [2], the EC50 was 1000 to 10000 nM.
As for `COc1ncc(C(F)(F)F)cc1N[C@H]1[C@H](C(C)(C)C)[C@@H](C(=O)O)N(C(=O)[C@@H]2CCCCO2)[C@H]1c1cccnc1N(C)C` [Example I-215], the “Maximum % activity (with co-corrector)” value is “++ (≥150 and <350)”; the Emax is below 100%. The EC50 under setting [1] was above 10000 nM. Besides, the EC50 under setting [2] fell in the range of 1000 to 10000 nM.
`COc1nc(C(C)(C)C)ccc1CN[C@H]1[C@H](C(C)(C)C)[C@@H](C(=O)O)N(C(=O)OC(C)C)[C@H]1c1ccccc1C(C)C` [Example I-216]: the “Maximum % activity (with co-corrector)” value was “+++ (≥350)” and the Emax was above 200%. The EC50 under setting [1] was below 1000 nM. For the same compound, the concentration for a half-maximal effect (EC50) under setting [2] was below 1000 nM.
With `COc1ccc(C(C)(C)C)cc1CN[C@H]1[C@H](C(C)(C)C)[C@@H](C(=O)O)N(C(=O)C2CCOC2C(C)C)[C@H]1c1ccccc1` (stereo partly drawn) [Example I-218], the “Maximum % activity (with co-corrector)” value is listed as “+++ (≥350)” and the Emax is above 200%. The EC50 under setting [1] was 1000 to 10000 nM. The EC50 under setting [2] fell in the range of 1000 to 10000 nM.
For `CC(C)(C)[C@H]1[C@H](NCC2(c3ccccc3Cl)CCOCC2)[C@H](c2ccccc2)N(C(=O)C2CCCCC2)[C@@H]1C(=O)O` [Example I-219], the “Maximum % activity (with co-corrector)” value is recorded as “+++ (≥350)” and the Emax lay in the range of 100 to 200%. Further, the EC50 under setting [1] was in the range of 1000 to 10000 nM. The half-maximal effective concentration (EC50) under setting [2] lay in the range of 1000 to 10000 nM.
Take `COc1ccc(C(C)(C)C)cc1CN[C@H]1[C@H](C(C)(C)OC)[C@@H](C(=O)O)N(C(=O)OC(C)C)[C@H]1c1cccnc1N(C)C` [Example I-220]: the “Maximum % activity (with co-corrector)” value is listed as “+++ (≥350)” and the Emax was above 200%. Besides, the 50% effective concentration (EC50) under setting [1] fell in the range of 1000 to 10000 nM. For the same compound, the EC50 under setting [2] lay within 1000 to 10000 nM.
As to `COc1ccc(C(C)(C)C)cc1CN[C@H]1[C@H](C(C)(C)C)[C@@H](C(=O)O)N(C(=O)OC(C)C)[C@H]1c1ccccc1F` [Example I-221], the “Maximum % activity (with co-corrector)” value is listed as “+++ (≥350)” and the Emax is above 200%. Also, the EC50 under setting [1] lay within 1000 to 10000 nM. For the same compound, the EC50 under setting [2] was in the range of 1000 to 10000 nM.
